This data set in a line: Aerodynamic particle size distribution by Andersen Cascade Impactor (ACI), ten cumulative actuations, drug on plates by HPLC. Format: physicochemical. Conditions: HFA 134a. The method, then:
The aerosol compositions of the invention described below were prepared by the following method. The required components of a composition were added into a can in the following order: drug, non-volatile additive, absolute ethanol. After crimping of the valve on to the can, the propellant was added through the valve. The weight gain of the can after each component was added was recorded to allow the percentage, by weight, of each component in the formulation to be calculated. The aerodynamic particle size distribution of each formulation was characterized using a Multistage Cascade Impactor according to the procedure described in the European Pharmacopoeia 2nd edition, 1995, part V.5.9.1. pages 15-17. In this specific case an Andersen Cascade Impactor (ACI) was used. Results represented were obtained from ten cumulative actuations or a formulation. Deposition of the drug on each ACI plate was determined by high pressure liquid chromatography. The mass median aerodynamic diameter (MMAD) and geometric standard deviation (GSD) were calculated from plots of the cumulative percentage undersize of drug collected on each ACI plate (probit scale), against the upper cut off diameter for each respective ACI plate (log10 scale). The fine particle dose of each formulation was determined from the mass of drug collected on Stages 2 through to Filter (<5.8 μm) divided by the number of actuations per experiment.

Setting [1] is: Flunisolide 50 mg/10 ml, ethanol 15.0 ± 0.1%, menthol 0% (w/w), glycerol 0% (w/w), actuator orifice 0.30 mm.
The mark [2] stands for this setting: Flunisolide 50 mg/10 ml, ethanol 15.0 ± 0.1%, menthol 0.4% (w/w), glycerol 0.9% (w/w), actuator orifice 0.30 mm.
Setting [3] is: Salbutamol base 20 mg/10 ml, ethanol 15% (w/w), glycerol 0% (w/w), oleic acid 0.35% (w/w), actuator orifice 0.30 mm.
Where [4] appears, read: Salbutamol base 20 mg/10 ml, ethanol 15% (w/w), glycerol 1.3% (w/w), oleic acid 0.36% (w/w), actuator orifice 0.30 mm.
Setting [5] is: combination BDP 50 mg/10 ml + Salbutamol base 20 mg/10 ml, ethanol 15.4 ± 0.2% (w/w), glycerol 0%, oleic acid 0%, actuator exit orifice 0.33 mm.
Where [6] appears, read: combination BDP 50 mg/10 ml + Salbutamol base 20 mg/10 ml, ethanol 15.4 ± 0.2% (w/w), glycerol 0%, oleic acid 0.3%, actuator exit orifice 0.33 mm.
The mark [7] stands for this setting: combination BDP 50 mg/10 ml + Salbutamol base 20 mg/10 ml, ethanol 15.4 ± 0.2% (w/w), glycerol 0%, oleic acid 1.3%, actuator exit orifice 0.30 mm.
[8] abbreviates: combination BDP 50 mg/10 ml + Salbutamol base 20 mg/10 ml, ethanol 15.4 ± 0.2% (w/w), glycerol 1.2%, oleic acid 0.3%, actuator exit orifice 0.30 mm.

Each structure is given as a SMILES string.

As for `CC1(C)O[C@@H]2C[C@H]3[C@@H]4C[C@H](F)C5=CC(=O)C=C[C@]5(C)[C@H]4[C@@H](O)C[C@]3(C)[C@]2(C(=O)CO)O1` [Flunisolide], under setting [1], the “Emitted dose” value came to 217.1 µg, the “Fine Particle Dose (FPD)” value turned out to be 76.85 µg, the GSD was found to be 2.15 and the MMAD turned out to be 1.8 µm. Under setting [2], the “Emitted dose” value worked out at 221.6 µg, the “Fine Particle Dose (FPD)” value turned out to be 77.84 µg, the GSD amounted to 2.1 and the MMAD came to 2.9 µm.
Regarding `CC(C)(C)NCC(O)c1ccc(O)c(CO)c1` (centres unmarked) [Salbutamol base], the Emitted dose reads like this: under setting [3], 85.8 µg; under setting [4], 92.0 µg; under setting [5], 82.5 µg; under setting [6], 84.8 µg; under setting [7], 85.9 µg; under setting [8], 85.3 µg. For the same compound, the FPD reads like this: under setting [3], 29.1 µg; under setting [4], 25.2 µg; under setting [5], 26.9 µg; under setting [6], 24.0 µg; under setting [7], 23.9 µg; under setting [8], 25.1 µg. Further, the GSD turned out to be 2.3 under setting [3]; 2.4 under setting [4]; 2.2 under setting [5]; 2.6 under setting [6]; 2.1 under setting [7]; 2.0 under setting [8]. Moreover, the MMAD reads like this: under setting [3], 1.7 μm; under setting [4], 2.8 μm; under setting [5], 1.7 μm; under setting [6], 2.0 μm; under setting [7], 2.4 μm; under setting [8], 3.0 μm.

For the origin of these results see US7601336B2, “Pharmaceutical aerosol composition” (Chiesi Farmaceutici S.p.A., priority 1997, dated 2009).
